From US20080227725A1, “Cosmetic or pharmaceutical composition comprising peptides, uses and treatment processes” (priority 2002, published 2008)
Where a SMILES comes first, the peptide text is derived from it.

System: ERG 1-2 molecule
Test: Cell differentiation marker ERG 1-2 in HaCat keratinocytes, immunofluorescence
Assay type: cell-based
Details: HaCat human keratinocytes, at 24 hours

quantity of ERG molecules present in the cells (intensity of fluorescence), cell differentiation: increases the quantity of ERG molecules
Structure (SMILES): N=C(N)NCCC[C@H](N)C(=O)NCC(=O)N[C@@H](CO)C(=O)O [Arg-Gly-Ser] (H-Arg-Gly-Ser-OH)
